According to paper PMC12430278, “A Simple and Reliable Method for the Determination of Isorhapontigenin in Murine Biological Matrices: Application in a Tissue Distribution Study” (Molecules, 2025):

Tests used:
[1] = Stability of stock solutions; assay type: physicochemical; settings: DMSO stock solution, stock solution 0.40 mg/mL, n = 6, read-out: Remaining (%, Mean ± SD)
Description: Stock solutions of ISO and trans-stilbene (internal standard, IS) were prepared in DMSO at a final concentration of 1 mg/mL. These solutions were stored at −20 °C and protected from light. The calibration standard and quality control (QC) samples were prepared by serial dilution of the ISO stock solution with pooled blank murine plasma or respective tissue homogenate.
The stability of ISO was evaluated under various storage conditions. Stock solution stability was assessed after storage at room temperature (25 °C) and –20 °C. The stability of ISO in plasma was examined under the following conditions: short-term storage (25 °C for 24 h), long-term storage (–80 °C for 52 days), three freeze–thaw cycles, and post-preparative stability (samples kept in an autosampler at 4 °C for more than 24 h). As it is difficult to evaluate ISO stability directly in tissues, only the short-term stability in tissue homogenates was assessed (6 h on ice). Similarly, post-preparative stability in processed tissue samples was assessed using liver homogenate as a representative, due to the complexity of the hepatic matrix. Stability was considered acceptable if 85–115% of the initial ISO concentration remained.

[2] = cited from earlier work; for Oral absorption: in vivo
[3] = enzymatic-hydrolysis approach; cited from earlier work

`C(=C\c1ccccc1)/c1ccccc1` [Internal standard, trans-stilbene, reference compound] showed a remaining at 24 h, 0.4 mg/mL ([1]; stored at room temperature for 24 h) of 94.7 ± 0.3% and a remaining at 480 h, 0.4 mg/mL ([1]; stored at −20 °C for 20 days) of 105.3 ± 0.7%.

In the case of `Oc1cc(O)cc(/C=C/c2ccc(O)cc2O)c1` [oxyresveratrol], the Oral absorption [2] is given as “rapid oral absorption”.

In the case of `Oc1cc(O)cc(/C=C/c2ccc(O)c(O)c2)c1` [piceatannol, reference compound], the Sulfation [3] is given as “extensive sulfation” and the Oral absorption [2] is given as “rapid oral absorption”.

In the case of `COc1cc(/C=C/c2ccc(O)cc2)cc(OC)c1` [pterostilbene], the Brain bioavailability ([2]; compared with ISO's limited brain penetration after oral administration) is listed as “significantly improved brain bioavailability”.
